We go through 47 compounds from patent publication EP0694535A1, “Non-peptidyl tachykinin receptor antagonists” (ELI LILLY AND COMPANY, priority 1994, dated 1996).

Structures can show the parent of a compound that is named as a salt.

For the first test, the target named is T1, NK-1 receptor (Homo sapiens, UniProt P25103).
T1 construct: an aliquot of IM9 cells; endogenous in cells; host or cells: IM9 cells (whole cells)
T1 sequence (P25103 whole entry): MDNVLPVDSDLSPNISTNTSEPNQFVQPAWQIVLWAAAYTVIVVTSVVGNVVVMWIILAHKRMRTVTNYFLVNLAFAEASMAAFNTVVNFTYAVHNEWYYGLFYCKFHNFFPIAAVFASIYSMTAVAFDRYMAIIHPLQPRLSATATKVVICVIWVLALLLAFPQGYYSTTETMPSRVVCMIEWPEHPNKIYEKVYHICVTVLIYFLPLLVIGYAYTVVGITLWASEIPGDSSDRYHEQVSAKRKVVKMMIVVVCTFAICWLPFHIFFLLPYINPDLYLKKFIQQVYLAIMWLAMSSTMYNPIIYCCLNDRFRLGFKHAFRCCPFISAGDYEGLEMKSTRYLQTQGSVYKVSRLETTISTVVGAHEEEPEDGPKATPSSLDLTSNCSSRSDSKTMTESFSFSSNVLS
The test is described as follows: NK-1 Receptor Binding Assay (competition with labeled substance P on IM9 cells). The settings on record: @ 20μM, inhibition of substance P binding to the NK-1 receptor, read-out: Percent Inhibition. The method, then: Radioreceptor binding assays were performed using a derivative of a previously published protocol. D.G. Payan, et al., Journal of Immunology, 133:3260-3265 (1984). In this assay an aliquot of IM9 cells (1 x 10⁶ cells/tube in […] medium supplemented with 10% fetal calf serum) was incubated with 20 pM […] substance P in the presence of increasing competitor concentrations for 45 minutes at 4°C.
The IM9 cell line is a well-characterized cell line which is readily available to the public. See. e.g., Annals of the New York Academy of Science, 190: 221-234 (1972); Nature (London), 251:443-444 (1974); Proceedings of the National Academy of Sciences (USA), 71:84-88 (1974). These cells were routinely cultured in RPMI 1640 supplemented with 50 µg/ml gentamicin sulfate and 10% fetal calf serum.
The reaction was terminated by filtration through a glass fiber filter harvesting system using filters previously soaked for 20 minutes in 0.1% polyethylenimine. Specific binding of labeled substance P was determined in the presence of 20 nM unlabeled ligand.
Column 1 provides the example number of the test antagonist compound. The next columns detail the substitution patterns of the test compound.
`Cc1ccc(-c2nc3ccccc3n2-c2ccccc2)cc1` [Example 18, 1-phenyl-2-(4-methylphenyl)benzimidazole]: the inhibition (in general, the percentage by which the read-out fell short of the control) at 20 µM is 37%.
As for `CCCCCc1nc2ccccc2n1-c1ccccc1` [Example 35, 1-phenyl-2-pentylbenzimidazole hydrochloride], the inhibition at 20 µM was found to be 51%.
Same read-out and setting: for `CN(C)CCn1c(-c2ccccc2)nc2ccccc21` [Example 26, 1-dimethylaminoethyl-2-phenylbenzimidazole dihydrochloride] the value was 0%; for `Clc1ccc(-n2c(-c3ccccc3)nc3ccccc32)cc1` [Example 8, 1-(4-chlorophenyl)-2-phenylbenzimidazole], 11%.
In the case of `c1ccc(Cc2nc3ccccc3n2-c2ccccc2)cc1` [Example 3, 1-phenyl-2-phenylmethylbenzimidazole], the inhibition at 20 µM stood at 30%.
For `c1ccc(-c2nc3ccccc3n2CCN2CCCCC2)cc1` [Example 28, 1-(piperidin-1-ylethyl)-2-phenylbenzimidazole dihydrochloride], the inhibition at 20 µM was 16%.
As to `FC(F)(F)c1cccc(-c2nc3ccccc3n2-c2ccccc2)c1` [Example 9, 1-phenyl-2-(3-trifluoromethylphenyl)-benzimidazole], the inhibition at 20 µM amounted to 15%.
On the same count and under the same terms, for `Clc1ccc(-c2nc3ccccc3n2-c2ccc(Cl)cc2)cc1` [Example 11, 1-(4-chlorophenyl)-2-(4-chlorophenyl)-benzimidazole] the value was 19%; for `Clc1ccccc1-c1nc2ccccc2n1-c1ccccc1` [Example 22, 1-phenyl-2-(2-chlorophenyl)benzimidazole], 65%.
On to `COc1ccc(-c2nc3ccccc3n2-c2ccccc2)cc1` [Example 2, 1-phenyl-2-(4-methoxyphenyl)benzimidazole], for which the inhibition at 20 µM came to 38%.
On the same count and under the same terms, for `FC(F)(F)c1ccccc1-c1nc2ccccc2n1-c1ccccc1` [Example 36, 1-phenyl-2-(2-trifluoromethylphenyl)-benzimidazole] the value was 43%; for `Cc1ccccc1-c1nc2ccccc2n1-c1ccccc1` [Example 23, 1-phenyl-2-(2-methylphenyl)benzimidazole], 51%; for `O=[N+]([O-])c1cc(-c2nc3ccccc3n2-c2ccccc2)ccc1Cl` [Example 30, 1-phenyl-2-(3-nitro-4-chlorophenyl)-benzimidazole], 79%.
The same measure, in the same setting: with `COc1ccc(-c2nc3ccccc3n2-c2ccc(Cl)cc2)cc1` [Example 17, 1-(4-chlorophenyl)-2-(4-methoxyphenyl)benzimidazole] the figure was 17%.
Consider `c1ccc(-n2c(C3CCCCC3)nc3ccccc32)cc1` [Example 21, 1-phenyl-2-cyclohexylbenzimidazole], for which the inhibition at 20 µM is 26%.
Still for that read-out and setting: for `Oc1ccc(-c2nc3ccccc3n2-c2ccccc2)cc1` [Example 29, 1-phenyl-2-(4-hydroxyphenyl)benzimidazole] the value was 67%; for `c1ccc(-c2nc3ccccc3n2-c2ccccc2)cc1` [Example 1, 1,2-diphenylbenzimidazole], 25%.
Take `Clc1ccc(-c2nc3ccccc3n2-c2ccccc2)cc1` [Example 5, 1-phenyl-2-(4-chlorophenyl)benzimidazole]: the inhibition at 20 µM came to 38%.

Still in this test, the particulars now being: at 10μM, inhibition of substance P binding to the NK-1 receptor, read-out: Percent Inhibition.
As for `COc1cccc(Cn2c(-c3cccc(C)c3)nc3ccccc32)c1` [Example 65, 1-(3-Methoxybenzyl)-2-(3-methylphenyl)benzimidazole], the inhibition at 10 µM is 58%.
Take `COc1ccc(Cn2c(-c3cccc(C)c3)nc3ccccc32)cc1` [Example 66, 1-(4-Methoxybenzyl)-2-(3-methylphenyl)benzimidazole]: the inhibition at 10 µM was 34%.
For the compound `Cc1cccc(-c2nc3ccccc3n2Cc2ccc(Cl)cc2Cl)c1` [Example 63, 1-(2,4-Dichlorobenzyl)-2-(3-methylphenyl)benzimidazole], the inhibition at 10 µM was 36%.
Turning to `Cc1cccc(-c2nc3ccccc3n2Cc2cccc(O)c2)c1` [Example 67, 1-(3-hydroxybenzyl)-2-(3-methylphenyl)benzimidazole hydrobromide], the inhibition at 10 µM was 60%.

Staying with this test, now noted: concentration which inhibits fifty percent of the binding of substance P, 20 pM labeled substance P, 45 minutes at 4°C.
With `N#Cc1cccc(-c2nc3ccccc3n2-c2ccccc2)c1` [Example 25, 1-phenyl-2-(3-cyanophenyl)benzimidazole], the IC50 (usually the concentration at which inhibition is half-maximal) worked out at 3.27 µM.
Still for that read-out and setting: with `COc1cc(-c2nc3ccc(OCCN4CCN(C)CC4)cc3n2Cc2ccccc2)cc(OC)c1OC` [Example 83, 1-benzyl-2-(3,4,5-trimethoxyphenyl)-6-[2-(4-methyl-1-piperazinyl)ethoxy]benzimidazole] the figure was 0.098 µM; with `FC(F)(F)c1ccc(-c2nc3ccccc3n2-c2ccccc2)cc1` [Example 12, 1-phenyl-2(4-trifluoromethylphenyl)-benzimidazole], 6.72 µM.
Same read-out and setting: for `COc1ccccc1-c1nc2ccccc2n1-c1ccccc1` [Example 24, 1-phenyl-2-(2-methoxyphenyl)benzimidazole] the value was 8.67 µM.
Still for that read-out and setting: for `Clc1ccc(-c2nc3ccccc3n2-c2ccccc2)cc1Cl` [Example 27, 1-phenyl-2-(3,4-dichlorophenyl)benzimidazole] the value was 6.61 µM.
In the case of `COc1cc(OC)cc(-c2nc3ccccc3n2-c2ccccc2)c1` [Example 14, 1-phenyl-2-(3,5-dimethoxyphenyl)benzimidazole], the IC50 came to 1.54 µM.
Compound `COc1cc(-c2nc3ccc(OCCCN(C)C)cc3n2Cc2ccccc2)cc(OC)c1OC` [Example 80, 1-benzyl-2-(3,4,5-trimethoxyphenyl)-6-[3-(N,N-dimethylamino)propoxy]benzimidazole] had an IC50 of 0.123 µM.
The same measure, in the same setting: with `COc1cc(-c2nc3ccc(O)cc3n2Cc2ccccc2)cc(OC)c1OC` [Example 69, 1-benzyl-2-(3,4,5-trimethoxyphenyl)-6-(hydroxy)-benzimidazole hydrochloride] the figure was 1.13 µM; with `N#Cc1ccc(-c2nc3ccccc3n2-c2ccccc2)cc1` [Example 20, 1-phenyl-2-(4-cyanophenyl)benzimidazole], 3.47 µM.
On the same count and under the same terms, with `COc1cccc(-c2nc3ccccc3n2-c2ccccc2)c1` [Example 6, 1-phenyl-2-(3-methoxyphenyl)benzimidazole] the figure was 3.29 µM; with `COc1cc(-c2nc3ccccc3n2-c2ccccc2)cc(OC)c1OC` [Example 16, 1-phenyl-2-(3,4,5-trimethoxyphenyl)-benzimidazole], 0.64 µM.
On the same count and under the same terms, for `COc1cc(-c2nc3ccc(OC(C)CN(C)C)cc3n2Cc2ccccc2)cc(OC)c1OC` (centres unmarked) [Example 78] the value was 0.151 µM; for `O=[N+]([O-])c1cccc(-c2nc3ccccc3n2-c2ccccc2)c1` [Example 10, 1-phenyl-2-(3-nitrophenyl)benzimidazole], 5 µM.
In turn, `c1ccc(-n2c(-c3cccs3)nc3ccccc32)cc1` [Example 33, 1-phenyl-2-(thien-2-yl)benzimidazole] registered an IC50 of 3.98 µM.
Compound `Clc1cccc(-c2nc3ccccc3n2-c2ccccc2)c1` [Example 4, 1-phenyl-2-(3-chlorophenyl)benzimidazole] showed an IC50 of 7 µM.
On the same count and under the same terms, for `COc1ccc2nc(-c3cc(OC)c(OC)c(OC)c3)n(Cc3ccccc3)c2c1` [Example 39, 1-phenylmethyl-2-(3,4,5-trimethoxyphenyl)-6-methoxybenzimidazole] the value was 0.427 µM.
Consider `COc1cc(-c2nc3ccc(OCCN(C(C)C)C(C)C)cc3n2Cc2ccccc2)cc(OC)c1OC` [Example 81, 1-benzyl-2-(3,4,5-trimethoxyphenyl)-6-[2-(N,N-diisopropylamino)ethoxy]benzimidazole], for which the IC50 turned out to be 0.04 µM.
Same read-out and setting: for `Cc1cccc(-c2nc3ccccc3n2-c2ccccc2)c1` [Example 19, 1-phenyl-2-(3-methylphenyl)benzimidazole] the value was 1.1 µM; for `COc1cc(-c2nc3ccc(OCCN(C)C)cc3n2Cc2ccccc2)cc(OC)c1OC` [Example 79, 1-benzyl-2-(3,4,5-trimethoxyphenyl)-6-[2-(N,N-dimethylamino)ethoxy]benzimidazole], 0.097 µM.
`CCCc1nc2ccccc2n1-c1ccccc1` [Example 32, 1-phenyl-2-propylbenzimidazole] showed an IC50 of 10 µM.
As for `Oc1cccc(-c2nc3ccccc3n2-c2ccccc2)c1` [Example 34, 1-phenyl-2-(3-hydroxyphenyl)benzimidazole], the IC50 came out at 12 µM.
Still for that read-out and setting: with `O=[N+]([O-])c1ccc(-c2nc3ccccc3n2-c2ccccc2)cc1` [Example 7, 1-phenyl-2-(4-nitrophenyl)benzimidazole] the figure was 9.12 µM; with `COc1ccc(-c2nc3ccccc3n2-c2ccccc2)cc1OC` [Example 15, 1-phenyl-2-(3,4-dimethoxyphenyl)benzimidazole], 2.98 µM.
`COc1ccc2c(c1)nc(-c1cc(OC)c(OC)c(OC)c1)n2Cc1ccccc1` [Example 38, 1-phenylmethyl-2-(3,4,5-trimethoxyphenyl)-5-methoxybenzimidazole] showed an IC50 of 1.05 µM.
For `c1ccc(-n2c(-c3ccc4ccccc4c3)nc3ccccc32)cc1` [Example 13, 1-phenyl-2-(2-naphthyl)benzimidazole], the IC50 is 6.91 µM.
